Data taken from the supplement of paper PMC10307832.

How the values were obtained:
Test in all cases: relative viability (nuclei count vs DMSO), 5 days (fraction); higher = more cells survive
Quizartinib + Pictilisib = compound: CC(C)(C)c1cc(NC(=O)Nc2ccc(-c3cn4c(n3)sc3cc(OCCN5CCOCC5)ccc34)cc2)no1 [Quizartinib] + CS(=O)(=O)N1CCN(Cc2cc3nc(-c4cccc5[nH]ncc45)nc(N4CCOCC4)c3s2)CC1 [Pictilisib] (partner 1 µM)
Outline: (§1)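 Cells from lung cancer lines were seeded into 1536-well plates and, one day later, dosed by pin tool. Treatments were either a single drug or a fixed dose of an anchor drug with five library-drug doses (not always all listed) in √10 steps. After 5 days, nuclei were stained in a one-step fixation (final 0.05% Triton X-100, 1% formaldehyde, 1 ug/ml Hoechst) and counted on 4× images, and relative viability is the treated-to-vehicle nuclei ratio, as the median of duplicate plates.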

Quizartinib + Decitabine = compound: CC(C)(C)c1cc(NC(=O)Nc2ccc(-c3cn4c(n3)sc3cc(OCCN5CCOCC5)ccc34)cc2)no1 [Quizartinib] + Nc1ncn([C@H]2C[C@H](O)[C@@H](CO)O2)c(=O)n1 [Decitabine] (partner 2 µM)
Outline: as §1

YM155 + Trametinib = compound: COCC[n+]1c2c(n(Cc3cnccn3)c1C)C(=O)c1ccccc1C2=O [YM155] + CC(=O)Nc1cccc(-n2c(=O)n(C3CC3)c(=O)c3c(Nc4ccc(I)cc4F)n(C)c(=O)c(C)c32)c1 [Trametinib] (partner 0.02 µM)
Outline: as §1

YM155 + AZD7762 = compound: COCC[n+]1c2c(n(Cc3cnccn3)c1C)C(=O)c1ccccc1C2=O [YM155] + NC(=O)Nc1cc(-c2cccc(F)c2)sc1C(=O)N[C@H]1CCCNC1 [AZD7762] (partner 0.2 µM)
Outline: as §1

Cell Line | relative viability (Quizartinib + Pictilisib; first compound 0.001 µM) | relative viability (Quizartinib + Pictilisib; first compound 0.003162 µM) | relative viability (Quizartinib + Pictilisib; first compound 0.01 µM) | relative viability (Quizartinib + Pictilisib; first compound 0.03162 µM) | relative viability (Quizartinib + Pictilisib; first compound 0.1 µM) | relative viability (Quizartinib + Decitabine; first compound 0.001 µM) | relative viability (Quizartinib + Decitabine; first compound 0.003162 µM) | relative viability (Quizartinib + Decitabine; first compound 0.01 µM) | relative viability (Quizartinib + Decitabine; first compound 0.03162 µM) | relative viability (Quizartinib + Decitabine; first compound 0.1 µM) | relative viability (YM155 + Trametinib; first compound 0.002 µM) | relative viability (YM155 + Trametinib; first compound 0.006325 µM) | relative viability (YM155 + Trametinib; first compound 0.02 µM) | relative viability (YM155 + Trametinib; first compound 0.06325 µM) | relative viability (YM155 + AZD7762; first compound 0.002 µM) | relative viability (YM155 + AZD7762; first compound 0.006325 µM) | relative viability (YM155 + AZD7762; first compound 0.02 µM) | relative viability (YM155 + AZD7762; first compound 0.06325 µM)
NCI-H1792 | 0.317 | 0.247 | 0.281 | 0.235 | 0.385 | 0.459 | 0.502 | 0.598 | 0.449 | 0.577 | 0.498 | 0.366 | 0.468 | 0.599 | 0.613 | 0.574 | 0.648 | 0.604
NCI-H1651 | 0.42 | 0.626 | 0.588 | 0.423 | 0.625 | 0.626 | 0.642 | 0.667 | 0.612 | 0.626 | 0.863 | 0.755 | 0.867 | 0.962 | 0.44 | 0.433 | 0.533 | 0.487
LU99A | 0.312 | 0.317 | 0.327 | 0.309 | 0.291 | 0.923 | 0.918 | 1.02 | 0.895 | 0.625 | 0.539 | 0.496 | 0.641 | 0.56 | 0.553 | 0.27 | 0.412 | 0.28
LC-2-ad | 0.398 | 0.516 | 0.351 | 0.323 | 0.276 | 0.718 | 0.81 | 0.776 | 0.841 | 0.68 | 0.928 | 0.925 | 0.866 | 0.87 | 0.8 | 0.842 | 0.854 | 0.841
A-427 | 0.702 | 0.709 | 0.708 | 0.68 | 0.668 | 0.517 | 0.529 | 0.582 | 0.515 | 0.566 | 0.739 | 0.796 | 0.757 | 0.526 | 0.741 | 0.793 | 0.752 | 0.312
LCLC-97TM1 |  | 0.144 | 0.223 | 0.148 | 0.218 | 0.225 | 0.253 | 0.237 | 0.218 | 0.21 |  | 0.178 | 0.23 | 0.21 | 0.158 | 0.251 | 0.231 | 0.096
BEN | 0.499 | 0.613 | 0.55 | 0.496 | 0.543 | 0.586 | 0.756 | 0.652 | 0.649 | 0.728 | 0.984 | 0.864 | 0.951 | 1.2 | 0.538 | 0.625 | 0.769 | 0.692
EMC-BAC-2 | 0.561 | 0.562 | 0.54 | 0.511 | 0.592 | 0.812 | 0.975 | 1.04 |  | 0.996 | 0.924 | 0.96 | 0.968 | 0.429 | 1.04 | 1.15 | 1.07 | 0.785
NCI-H1355 | 0.352 | 0.418 | 0.41 | 0.426 | 0.5 | 0.346 | 0.349 | 0.338 | 0.331 | 0.36 | 0.509 | 0.454 | 0.473 | 0.406 | 0.74 | 0.749 | 0.781 | 0.798
